Experimental data reported in US12187672B2, “1,2-diacylglycerol compound, preparation method therefor, and immunomodulator containing same as active ingredient” (ENZYCHEM LIFESCIENCES CORPORATION, priority 2018, dated 2025).

Assays:
STAT3 = assay: IL-6-induced STAT3 activity, SEAP expression in HEK-Blue IL-6 cells; format: cell-based; settings: HEK-Blue IL-6 cells; for STAT3 activity_SEAP expression(%) (average ± deviation): sample 100 μg/ml 1 h, then IL-6 5 ng/ml 24 h, negative control = 100
Experimental: HEK-Blue™ IL-6 cells were used to confirm STAT3 activity by STAT3-induced SEAP (secreted embryonic alkaline phosphatase) expression. In DMEM (Hyclone, Thermo Scientific) medium to which 10% Fetal Bovine Serum was added, HEK-Blue™ IL-6 cells were cultured at a concentration of 1×10^5 cells/ml, and maintained in a 5% CO2 humidified incubator at 37° C. The cultured HEK-Blue™ IL-6 cells were inoculated by 1×10^5 cells/ml. Then, the culture solution was treated with a glycerol derivative compounds of the type shown in Table 4 below for 1 hour and then IL-6 (5 ng/ml) was further incubated for 24 hours for STAT3 activity. Thereafter, the culture supernatant was collected for each well and centrifuged (at 3000 rpm, 5 minutes) to recover the supernatant. The SEAP expression level in the recovered supernatant was mixed with Quanti blue reagent and the supernatant at a ratio of 1:10 and left at 37° C. for about 30 minutes. Then, the SEAP concentration was confirmed at 650 nm wavelength using a spectrophotometer, and the results (STAT3 activity inhibitory ability) thereof are shown in Table 4 and FIG. 3 below.

CXCL8 (IL-8) = CXCL8 (IL-8) expression reduction in Gemcitabine-treated THP-1 cells (ELISA); format: cell-based, human; settings: THP-1 cells; for CXCL8 [IL-8] concentration (average ± deviation): sample 100 μg/ml 1 h, then Gemcitabine 2 μg/ml 24 h
Experimental: In RPMI (Hyclone, Thermo Scientific) medium to which 10% Fetal Bovine Serum was added, THP-1 cells, a human macrophage family, were suspended at a concentration of 1×10^5 cells/ml, and culture was conducted in a 5% CO2 humidified incubator at 37° C. The cultured THP-1 cells were inoculated into a 12 well plate by 1×10^6 cells/ml and stabilized for 30 minutes. Then, the culture solution was treated with a glycerol derivative compounds of the type shown in Table 6 below for 1 hour and then was treated with Gemcitabine (2 μg/ml) of a cell stimulator, and subsequent further incubation was conducted for 24 hours. Thereafter 1.5 ml of the culture supernatant was collected for each well and centrifuged (at 3000 rpm, 5 minutes) to recover the supernatant. The CXCL8 (IL-8) level in the recovered supernatant was measured according to the manual provided by the human IL-8 ELISA set (BD Biosciences). The day before ELISA was carried out, the IL-8 capture antibody was diluted in phosphate buffered saline, coated on a microwell, and then stored at 4° C. overnight. Each well was washed three times with a buffer solution and then blocked with 2% Bovine Serum Albumin (BSA) for 1 hour at room temperature. After washing with washing buffer solution three times, 100 μl of sample was dispensed into each well and left at room temperature for 2 hours. Detection antibody which was washed 3 times with washing buffer and diluted was dispensed into each well and allowed to react at room temperature for 1 hour and left at room temperature for 1 hour. Thereafter, the secondary HRP conjugated antibody was reacted at room temperature for 30 minutes, washed three times with a washing buffer, and treated with 50 μl of stop solution for each well, and then the optical density was measured at 450 nm with an ELISA microplate leader.

HL-60 cells = assay: Migration of HL-60 cell line toward THP-1 culture supernatant (transmigration assay); format: cell-based, human; settings: supernatant of THP-1 cells treated with sample 100 μg/ml 1 h, then Gemcitabine 2 μg/ml 24 h
Experimental: In RPMI (Hyclone, Thermo Scientific) medium to which 10% Fetal Bovine Serum was added, THP-1 cells, a human macrophage family, were subcultured at a concentration of 1×10^5 cells/ml, and culture was conducted in a 5% CO2 humidified incubator at 37° C. In order to prepare the THP-1 cell culture solution to be treated in the lower well during the transmigration assay, first, the cultured THP-1 cells were inoculated into a 12 well plate by 1×10^6 cells/ml and stabilized for 30 minutes. Then, the culture solution was treated with a glycerol derivative compounds of the type shown in Table 7 below for 1 hour and then was treated with Gemcitabine (2 μg/ml) of a cell stimulator, and subsequent further incubation was conducted for 24 hours. Thereafter 1.5 ml of the culture supernatant was collected for each well and centrifuged (at 3000 rpm, 5 minutes) to recover the supernatant. The CXCL8 (IL-8) level in the recovered supernatant was measured according to the manual provided by Cultrex 96 well Laminin Cell Invasion assay. The day before Transmigration assay was carried out, a 1× Lamin I solution was treated in the upper Invasion Chamber and coated. Thereafter, in RPMI (Hyclone, Thermo Scientific) medium to which 10% Fetal Bovine Serum was added, the cultured HL-60 cells were despensed of 5×10^4 cells/chamber, and 150 μl of the THP-1 culture supernatant prepared in advance was added to the lower chamber. Thereafter the upper chamber was removed, and the cells were attached to the bottom of the lower chamber by a centrifuge, and then the supernatant was removed. Cell dissociation/Calcein-AM solution was added and reacted for 1 hour. Then, the value obtained using a fluorescence spectroscopy was calculated by converting the number of cells.

IL-6 = assay: LPS-induced IL-6 secretion reduction in RAW264.7 cells (ELISA); format: cell-based, mouse; settings: sample 100 μg/ml 1 h, then LPS 1 μg/ml 24 h, Table 2
Experimental: In DMEM (Dulbecco Modified Eagle Medium, Hyclone, Thermo Scientific) medium to which 10% Fetal Bovine Serum was added, RAW264.7 cells, a mouse macrophage family, were suspended at a concentration of 1×10^5 cells/ml, and culture was conducted in a 5% CO2 humidified incubator at 37° C. The cultured RAW264.7 cells were inoculated into a 48 well plate by 5×10^4 cells/ml and stabilized for 15 hours. Then, the culture solution was treated with a glycerol derivative compounds of the type shown in Table 2 and 3 below for 1 hour and then was treated with 1 μg/ml of Lipopolysaccaride (LPS) of a cell stimulator, and subsequent further incubation was conducted for 24 hours. Thereafter 0.5 ml of the culture supernatant was collected for each well and centrifuged (at 3000 rpm, 5 minutes) to recover the supernatant. The IL-6 level in the recovered supernatant was measured according to the manual provided by the Mouse IL-6 ELISA set (BD Biosciences). The day before ELISA was carried out, the IL-6 capture antibody was diluted in phosphate buffered saline, coated on a microwell, and then stored at 4° C. overnight. Each well was washed three times with a buffer solution and then blocked with 2% Bovine Serum Albumin (BSA) for 1 hour at room temperature. After washing with buffer solution three times, […] of sample was dispensed into each well and left at room temperature for 2 hours. Detection antibody which was washed 3 times with washing buffer solution and diluted was dispensed into each well and allowed to react at room temperature for 1 hour and left at room temperature for 1 hour. Thereafter, the secondary HRP conjugated antibody was reacted at room temperature for 30 minutes, washed three times with a buffer solution, and treated with 50 μl of stop solution for each well, and then the optical density was measured at 450 nm with an ELISA microplate leader. The results of the IL-6 expression reduction rate (IL-6 concentration) are shown in Table 2, Table 3, FIG. 1 and FIG. 2 below.

STAT6 = assay: IL-4-induced STAT6 activity, pGL4-STAT6 luciferase reporter in A549 cells; format: cell-based; settings: sample 100 μg/ml 1 h, then IL-4 (2 ng/ml) 20 h, Table 9
Experimental: In DMEM (Dulbecco Modified Eagle Medium, Hyclone, Thermo Scientific) medium to which 10% Fetal Bovine Serum was added, A549 cells were subcultured at a concentration of 1×10^5 cells/ml, and culture was conducted in a 5% CO2 humidified incubator at 37° C. The cultured A549 cells were inoculated into a 48 well plate by 1×10^5 cells/ml and stabilized for 18 hours. Thereafter, pGL4-STAT6 reporter vector containing a STAT6 binding promoter portion was mixed with Attractene to induce complex formation at room temperature for 15 minutes. This complex was treated with the cells and then further incubated for 24 hours. Thereafter, the culture solution was treated with a glycerol derivative compounds of the type shown in Table 9 and 10 below for 1 hour, and then IL-4 (2 ng/ml or 10 ng/ml) was further incubated for 20 hours for STAT6 activity. Thereafter, the culture supernatant was removed for each well, and the remaining cells were lysed with a cell lysis buffer, and then cell lysate was recovered. 90 μl of luciferase reagent was mixed with 10 μl of the recovered cell lysate, and the degree of fluorescence was confirmed using a luminometer. The results are shown in Table 9, Table 10, FIG. 9 and FIG. 10 below.

IL-4 = assay: PKC activator-induced IL-4 secretion reduction in EL-4 cells (ELISA); format: cell-based, mouse; settings: sample 100 μg/ml 2 h, then PKC activator 18 h, Table 11
Experimental: In DMEM (Dulbecco Modified Eagle Medium, Hyclone, Thermo Scientific) medium to which 10% Fetal Bovine Serum was added, EL-4 cells, a mouse lymphoma family, were subcultured at a concentration of 1×10^5 cells/ml, and culture was conducted in a 5% CO2 humidified incubator at 37° C. The cultured EL-4 cells were inoculated into a 48 well plate by 5×10^4 cells/ml and stabilized for 30 hours. Then, the culture solution was treated with a glycerol derivative compounds of the type shown in Table 11 and 12 below for 2 hours. Thereafter, it were treated with 0.5 μg/ml of PKC activator (p10, some kind of PMA) of a cell stimulator, and subsequent further incubation were conducted for 18 hours. Thereafter 0.5 ml of the culture supernatant was collected for each well and centrifuged (at 3000 rpm, 5 minutes) to recover the supernatant. The IL-4 level in the recovered supernatant was measured according to the manual provided by the Mouse IL-4 ELISA set (BD Biosciences). The day before ELISA was carried out, the IL-4 capture antibody was diluted in phosphate buffered saline, coated on a microwell, and then stored at 4° C. overnight. Each well was washed three times with a buffer solution and then blocked with 2% Bovine Serum Albumin (BSA) for 1 hour at room temperature. After washing with buffer solution three times, 100 μl of sample was dispensed into each well and left at room temperature for 2 hours. Detection antibody which was washed 3 times with washing buffer solution and diluted was dispensed into each well and allowed to react at room temperature for 1 hour and left at room temperature for 1 hour. Thereafter, the secondary HRP conjugated antibody was reacted at room temperature for 30 minutes, washed three times with buffer solution, and treated with 50 μl of stop solution for each well, and then the optical density was measured at 450 nm with an ELISA microplate leader. The results of the measured expression reduction rate ([…]) were shown in Table 11, Table 12, FIG. 11 and FIG. 12 below.

Structure (SMILES) | decrease of STAT3 activity compared to the IL-6 cytokine-treated group (STAT3; 100 μg/ml) | STAT3 activity_SEAP expression(%) (average ± deviation) (STAT3) | reduction of CXCL8 (IL-8) expression/secretion (CXCL8 (IL-8); Gemcitabine-treated, 100 μg/ml) | CXCL8 [IL-8] concentration (average ± deviation) (CXCL8 (IL-8)) [pg/µL] | Number of HL-60 cells migrated through Transwell (HL-60 cells) [Cell Number] | IL-6 concentration (average ± deviation) (IL-6) [µg/mL] | STAT6 activity_Luciferase activity (average ± deviation) (STAT6) | IL-4 concentration (average ± deviation) (IL-4) [pg/µL]
CCCCC/C=C\C/C=C\CCCCCCCC(=O)OC(COC(=O)CCCC)COC(=O)CCCCCCCCCCCCCCC (centres unmarked) [EC_A18] | about 25% | 166.2 ± 29.6 | about 20% | 84.0 ± 1.8 | 9891.6 | 0.147 ± 0.003 | 1189.2 ± 174.7 | 
CCCCC/C=C\C/C=C\CCCCCCCC(=O)OC(COC(=O)CCCCCCCCCCCCCCC)COC(=O)C(C)C (centres unmarked) [EC_A19] |  | 162.9 ± 33.2 |  | 277.9 ± 3.1 | 14882.8 | 0.204 ± 0.014 | 898.7 ± 115.9 | 
CCCCC/C=C\C/C=C\CCCCCCCC(=O)OC(COC(=O)CCCCCCCCCCCCCCC)COC(C)OC (centres unmarked) [EC_A70-1] |  | 259.5 ± 28.4 |  | 200.1 ± 1.0 | 4047.1 | 0.144 ± 0.028 |  | 865.6 ± 127.9
